Experimental data from patent EP0118838A2, “New cephem compounds processes for preparation thereof and pharmaceutical compositions containing them” (FUJISAWA PHARMACEUTICAL CO., LTD., priority 1983, dated 1984).

How the values were obtained:
Proteus vulgaris 2 = assay: In vitro antibacterial activity, two-fold agar-plate dilution method; format: cell-based; conditions: HI-agar, incubation at 37°C for 20 hours, inoculum 10^8 viable cells per ml
Description: (§1) In vitro antibacterial activity was determined by the two-fold agar-plate dilution method as described below. One loopful of an overnight culture of each test strain in Trypticase-soy broth (10^8 viable cells per ml.) was streaked on heart infusion agar (HI-agar) containing graded concentrations of test compound , and minimal inhibitory concentration (MIC) was expressed in terms of µg/ml after incubation at 37°C for 20 hours.

Proteus mirabilis 18 = assay: as above; format: cell-based; conditions: HI-agar, incubation at 37°C for 20 hours, inoculum 10^8 viable cells per ml
Description: as §1

MIC (Proteus vulgaris 2): < 0.025 µg/mL
MIC (Proteus mirabilis 18): < 0.025 µg/mL
SMILES: Nc1nc(/C(=N/OCC(=O)O)C(=O)NC2C(=O)N3C(C(=O)O)=C(CSc4snc(O)c4C(=O)O)CSC23)ns1 (stereo not drawn) [Test Compound, Sodium 7-[2-(5-amino-1,2,4-thiadiazol-3-yl)-2-carboxymethoxyiminoacetamido]-3-[(4-carboxy-3-hydroxyisothiazol-5-yl)thiomethyl]-3-cephem-4-carboxylate (syn isomer)]
